Measurements from the supplement of paper PMC10307832.

Key:
Assay in all cases: relative viability (nuclei count vs DMSO), 5 days (fraction); higher = more cells survive
[1] = compound: C1=CC=C2C(=C1)N=C(S2)C(C#N)C3=NC(=NC=C3)NCCC4=CN=CC=C4 + CC(=O)c1c(C)c2cnc(Nc3ccc(N4CCNCC4)cn3)nc2n(C2CCCC2)c1=O [Palbociclib] (partner 0.5 µM)
How it was run: (§1)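 Lung cancer cell lines in 1536-well plates were dosed by pin tool the day after seeding, either with one drug alone or with a fixed anchor-drug dose plus five library-drug doses (not always all listed) in √10 steps. After 5 days, cells were fixed and their nuclei stained in one step (final 0.05% Triton X-100, 1% formaldehyde, 1 ug/ml Hoechst), then counted on 4× images. Relative viability is the nuclei count in treated wells divided by that in vehicle wells. Values are medians of duplicate plates.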

Vandetanib + Bortezomib = compound: COc1cc2/c(=N/c3ccc(Br)cc3F)nc[nH]c2cc1OCC1CCN(C)CC1 [Vandetanib] + CC(C)C[C@H](NC(=O)[C@H](Cc1ccccc1)NC(=O)c1cnccn1)B(O)O [Bortezomib] (partner 0.002 µM)
How it was run: as §1

[2] = compound: C1=CC=C2C(=C1)N=C(S2)C(C#N)C3=NC(=NC=C3)NCCC4=CN=CC=C4 + CS(=O)(=O)N1CCN(Cc2cc3nc(-c4cccc5[nH]ncc45)nc(N4CCOCC4)c3s2)CC1 [Pictilisib] (partner 1 µM)
How it was run: as §1

Vandetanib + Palbociclib = compound: COc1cc2/c(=N/c3ccc(Br)cc3F)nc[nH]c2cc1OCC1CCN(C)CC1 [Vandetanib] + CC(=O)c1c(C)c2cnc(Nc3ccc(N4CCNCC4)cn3)nc2n(C2CCCC2)c1=O [Palbociclib] (partner 0.5 µM)
How it was run: as §1

## NCI-H2405
[1]; first compound 0.005 µM
  relative viability: 0.462
[1]; first compound 0.01581 µM
  relative viability: 0.572
[1]; first compound 0.05 µM
  relative viability: 0.543
[1]; first compound 0.1581 µM
  relative viability: 0.533
[1]; first compound 0.5 µM
  relative viability: 0.461
Vandetanib + Bortezomib; first compound 0.02 µM
  relative viability: 0.96
Vandetanib + Bortezomib; first compound 0.06325 µM
  relative viability: 0.9
Vandetanib + Bortezomib; first compound 0.2 µM
  relative viability: 0.985
Vandetanib + Bortezomib; first compound 0.6325 µM
  relative viability: 0.948
Vandetanib + Bortezomib; first compound 2 µM
  relative viability: 1
[2]; first compound 0.005 µM
  relative viability: 0.456
[2]; first compound 0.01581 µM
  relative viability: 0.378
[2]; first compound 0.05 µM
  relative viability: 0.397
[2]; first compound 0.1581 µM
  relative viability: 0.506
[2]; first compound 0.5 µM
  relative viability: 0.422
Vandetanib + Palbociclib; first compound 0.02 µM
  relative viability: 0.494
Vandetanib + Palbociclib; first compound 0.06325 µM
  relative viability: 0.39
Vandetanib + Palbociclib; first compound 0.2 µM
  relative viability: 0.514
Vandetanib + Palbociclib; first compound 0.6325 µM
  relative viability: 0.592
Vandetanib + Palbociclib; first compound 2 µM
  relative viability: 0.514

## NCI-H3122
[1]; first compound 0.005 µM
  relative viability: 0.162
[1]; first compound 0.01581 µM
  relative viability: 0.208
[1]; first compound 0.05 µM
  relative viability: 0.199
[1]; first compound 0.1581 µM
  relative viability: 0.184
[1]; first compound 0.5 µM
  relative viability: 0.178
Vandetanib + Bortezomib; first compound 0.02 µM
  relative viability: 0.978
Vandetanib + Bortezomib; first compound 0.06325 µM
  relative viability: 1.03
Vandetanib + Bortezomib; first compound 0.2 µM
  relative viability: 1.05
Vandetanib + Bortezomib; first compound 0.6325 µM
  relative viability: 0.953
Vandetanib + Bortezomib; first compound 2 µM
  relative viability: 1
[2]; first compound 0.005 µM
  relative viability: 0.62
[2]; first compound 0.01581 µM
  relative viability: 0.655
[2]; first compound 0.05 µM
  relative viability: 0.603
[2]; first compound 0.1581 µM
  relative viability: 0.613
[2]; first compound 0.5 µM
  relative viability: 0.64
Vandetanib + Palbociclib; first compound 0.02 µM
  relative viability: 0.198
Vandetanib + Palbociclib; first compound 0.06325 µM
  relative viability: 0.183
Vandetanib + Palbociclib; first compound 0.2 µM
  relative viability: 0.126
Vandetanib + Palbociclib; first compound 0.6325 µM
  relative viability: 0.178
Vandetanib + Palbociclib; first compound 2 µM
  relative viability: 0.228

## PC-3 [JPC-3]
[1]; first compound 0.005 µM
  relative viability: 0.592
[1]; first compound 0.05 µM
  relative viability: 0.534
[1]; first compound 0.1581 µM
  relative viability: 0.532
[1]; first compound 0.5 µM
  relative viability: 0.515
Vandetanib + Bortezomib; first compound 0.02 µM
  relative viability: 0.828
Vandetanib + Bortezomib; first compound 0.06325 µM
  relative viability: 0.738
Vandetanib + Bortezomib; first compound 0.2 µM
  relative viability: 0.646
Vandetanib + Bortezomib; first compound 0.6325 µM
  relative viability: 0.734
Vandetanib + Bortezomib; first compound 2 µM
  relative viability: 0.431
[2]; first compound 0.005 µM
  relative viability: 0.605
[2]; first compound 0.01581 µM
  relative viability: 0.643
[2]; first compound 0.05 µM
  relative viability: 0.722
[2]; first compound 0.1581 µM
  relative viability: 0.731
[2]; first compound 0.5 µM
  relative viability: 0.672
Vandetanib + Palbociclib; first compound 0.02 µM
  relative viability: 0.509
Vandetanib + Palbociclib; first compound 0.06325 µM
  relative viability: 0.527
Vandetanib + Palbociclib; first compound 0.2 µM
  relative viability: 0.592
Vandetanib + Palbociclib; first compound 0.6325 µM
  relative viability: 0.553
Vandetanib + Palbociclib; first compound 2 µM
  relative viability: 0.464

## PC-14
[1]; first compound 0.005 µM
  relative viability: 0.34
[1]; first compound 0.01581 µM
  relative viability: 0.479
[1]; first compound 0.05 µM
  relative viability: 0.515
[1]; first compound 0.1581 µM
  relative viability: 0.559
[1]; first compound 0.5 µM
  relative viability: 0.441
Vandetanib + Bortezomib; first compound 0.02 µM
  relative viability: 1.03
Vandetanib + Bortezomib; first compound 0.06325 µM
  relative viability: 0.939
Vandetanib + Bortezomib; first compound 0.2 µM
  relative viability: 1.05
Vandetanib + Bortezomib; first compound 0.6325 µM
  relative viability: 0.295
Vandetanib + Bortezomib; first compound 2 µM
  relative viability: 0.258
[2]; first compound 0.01581 µM
  relative viability: 0.785
[2]; first compound 0.05 µM
  relative viability: 0.778
[2]; first compound 0.1581 µM
  relative viability: 0.498
[2]; first compound 0.5 µM
  relative viability: 0.533
Vandetanib + Palbociclib; first compound 0.02 µM
  relative viability: 0.536
Vandetanib + Palbociclib; first compound 0.06325 µM
  relative viability: 0.436
Vandetanib + Palbociclib; first compound 0.2 µM
  relative viability: 0.0488
Vandetanib + Palbociclib; first compound 0.6325 µM
  relative viability: 0.117
Vandetanib + Palbociclib; first compound 2 µM
  relative viability: 0.0605

## RERF-LC-KJ
[1]; first compound 0.005 µM
  relative viability: 0.977
[1]; first compound 0.01581 µM
  relative viability: 1.13
[1]; first compound 0.05 µM
  relative viability: 1.05
[1]; first compound 0.1581 µM
  relative viability: 1.12
[1]; first compound 0.5 µM
  relative viability: 1.01
Vandetanib + Bortezomib; first compound 0.02 µM
  relative viability: 1.05
Vandetanib + Bortezomib; first compound 0.06325 µM
  relative viability: 0.961
Vandetanib + Bortezomib; first compound 0.2 µM
  relative viability: 1.05
Vandetanib + Bortezomib; first compound 0.6325 µM
  relative viability: 0.951
Vandetanib + Bortezomib; first compound 2 µM
  relative viability: 0.958
[2]; first compound 0.005 µM
  relative viability: 0.739
[2]; first compound 0.01581 µM
  relative viability: 0.64
[2]; first compound 0.05 µM
  relative viability: 0.48
[2]; first compound 0.1581 µM
  relative viability: 0.529
[2]; first compound 0.5 µM
  relative viability: 0.403
Vandetanib + Palbociclib; first compound 0.02 µM
  relative viability: 1.05
Vandetanib + Palbociclib; first compound 0.06325 µM
  relative viability: 1.03
Vandetanib + Palbociclib; first compound 0.2 µM
  relative viability: 0.673
Vandetanib + Palbociclib; first compound 0.6325 µM
  relative viability: 0.993
Vandetanib + Palbociclib; first compound 2 µM
  relative viability: 0.869

## SK-LU-1
[1]; first compound 0.005 µM
  relative viability: 0.412
[1]; first compound 0.01581 µM
  relative viability: 0.399
[1]; first compound 0.05 µM
  relative viability: 0.31
[1]; first compound 0.1581 µM
  relative viability: 0.41
[1]; first compound 0.5 µM
  relative viability: 0.395
Vandetanib + Bortezomib; first compound 0.02 µM
  relative viability: 1.23
Vandetanib + Bortezomib; first compound 0.06325 µM
  relative viability: 1.01
Vandetanib + Bortezomib; first compound 0.2 µM
  relative viability: 1.21
Vandetanib + Bortezomib; first compound 0.6325 µM
  relative viability: 1.39
Vandetanib + Bortezomib; first compound 2 µM
  relative viability: 0.467
[2]; first compound 0.01581 µM
  relative viability: 0.643
[2]; first compound 0.05 µM
  relative viability: 0.6
[2]; first compound 0.1581 µM
  relative viability: 0.651
[2]; first compound 0.5 µM
  relative viability: 0.552
Vandetanib + Palbociclib; first compound 0.02 µM
  relative viability: 0.387
Vandetanib + Palbociclib; first compound 0.06325 µM
  relative viability: 0.314
Vandetanib + Palbociclib; first compound 0.2 µM
  relative viability: 0.363
Vandetanib + Palbociclib; first compound 0.6325 µM
  relative viability: 0.376
Vandetanib + Palbociclib; first compound 2 µM
  relative viability: 0.354

## SW 1573
[1]; first compound 0.005 µM
  relative viability: 0.306
[1]; first compound 0.01581 µM
  relative viability: 0.325
[1]; first compound 0.05 µM
  relative viability: 0.389
[1]; first compound 0.1581 µM
  relative viability: 0.478
[1]; first compound 0.5 µM
  relative viability: 0.299
Vandetanib + Bortezomib; first compound 0.02 µM
  relative viability: 1
Vandetanib + Bortezomib; first compound 0.06325 µM
  relative viability: 0.817
Vandetanib + Bortezomib; first compound 0.2 µM
  relative viability: 1.16
Vandetanib + Bortezomib; first compound 0.6325 µM
  relative viability: 1.01
Vandetanib + Bortezomib; first compound 2 µM
  relative viability: 0.879
[2]; first compound 0.005 µM
  relative viability: 0.373
[2]; first compound 0.01581 µM
  relative viability: 0.542
[2]; first compound 0.05 µM
  relative viability: 0.505
[2]; first compound 0.1581 µM
  relative viability: 0.497
[2]; first compound 0.5 µM
  relative viability: 0.497
Vandetanib + Palbociclib; first compound 0.02 µM
  relative viability: 0.413
Vandetanib + Palbociclib; first compound 0.06325 µM
  relative viability: 0.421
Vandetanib + Palbociclib; first compound 0.6325 µM
  relative viability: 0.29
Vandetanib + Palbociclib; first compound 2 µM
  relative viability: 0.403
